Results as given in ChEMBL document CHEMBL3526121, “Pharmacokinetics, bioavailability, tissue distribution, excretion, and metabolite identification of methoxyflavones in Kaempferia parviflora extract in rats” (Drug Metab Dispos, 2012).

Columns and labels:
[1] = Drug excretion in Wistar rat feces at 750 mg/kg, po after 12 hrs by HPLC-UV analysis; format: ADME, organism-based; parameters: dose 750 mg/kg, route oral; conditions: in vivo
[2] = Drug excretion in Wistar rat urine at 750 mg/kg, po after 12 hrs by HPLC-UV analysis; format: ADME, organism-based; parameters: dose 750 mg/kg, route oral; conditions: in vivo
[3] = Drug metabolism in Wistar rat urine/feces treated with 750 mg/kg, po of 3,5,7,4'-tetramethoxyflavone by LC-MS and LC-MS/MS analysis; format: ADME, organism-based; parameters: dose 750 mg/kg, route oral; conditions: in vivo
[4] = Drug metabolism in Wistar rat assessed as excretion of 3,5-dihydroxy-7-methoxy-2-(4-methoxyphenyl)-4H-chromen-4-one in urine/feces at 750 mg/kg, po by LC-MS and LC-MS/MS analysis; format: ADME, organism-based; parameters: dose 750 mg/kg, route oral; conditions: in vivo
[5] = Drug metabolism in Wistar rat assessed as excretion of 3,5-dihydroxy-2-(4-hydroxyphenyl)-7-methoxy-4H-chromen-4-one in feces at 750 mg/kg, po by LC-MS and LC-MS/MS analysis; format: ADME, organism-based; parameters: dose 750 mg/kg, route oral; conditions: in vivo
[6] = Cmax in Wistar rat lung at 750 mg/kg, po by LC-MS/MS analysis; format: ADME, organism-based; parameters: dose 750 mg/kg, route oral
[7] = Cmax in Wistar rat brain at 750 mg/kg, po by LC-MS/MS analysis; format: ADME, organism-based; parameters: dose 750 mg/kg, route oral
[8] = Clearance in Wistar rat at 250 mg/kg, iv by HPLC analysis; format: ADME, organism-based; parameters: dose 250 mg/kg, route intravenous; conditions: in vivo
[9] = Elimination rate constant in Wistar rat at 250 mg/kg, po by HPLC analysis; format: ADME, organism-based; parameters: dose 250 mg/kg, route oral; conditions: in vivo, read-out: Ke (converted)
Liver = experiment: AUC (0.083 to 4 hrs) in Wistar rat liver at 750 mg/kg, po by LC-MS/MS analysis; format: ADME, organism-based; parameters: time 0.083-4 hr, dose 750 mg/kg, route oral; conditions: in vivo
[10] = Elimination rate constant in Wistar rat at 250 mg/kg, iv by HPLC analysis; format: ADME, organism-based; parameters: dose 250 mg/kg, route intravenous; conditions: Wistar, in vivo, read-out: Ke (converted)
[11] = Tmax in Wistar rat testes at 750 mg/kg, po by LC-MS/MS analysis; format: ADME, organism-based, Testis; parameters: dose 750 mg/kg, route oral
[12] = Half life in Wistar rat at 250 mg/kg, po by HPLC analysis; format: ADME, organism-based; parameters: dose 250 mg/kg, route oral; conditions: in vivo
[13] = AUC (0.083 to 4 hrs) in Wistar rat testes at 750 mg/kg, po by LC-MS/MS analysis; format: ADME, organism-based, Testis; parameters: time 0.083-4 hr, dose 750 mg/kg, route oral; conditions: in vivo
[14] = AUC in Wistar rat at 250 mg/kg, iv by HPLC analysis; format: ADME, organism-based; parameters: dose 250 mg/kg, route intravenous; conditions: plasma
[15] = Oral bioavailability in Wistar rat at 250 mg/kg by HPLC analysis; format: ADME, organism-based; conditions: in vivo
Lung = experiment: AUC (0.083 to 4 hrs) in Wistar rat lung at 750 mg/kg, po by LC-MS/MS analysis; format: ADME, organism-based; parameters: time upper 4 hr, time lower 0.083 hr, dose 750 mg/kg, route oral; conditions: in vivo
[16] = Drug excretion in Wistar rat feces at 750 mg/kg, po after up to 72 hrs by HPLC-UV analysis; format: ADME, organism-based; parameters: dose 750 mg/kg, route oral; conditions: faeces, read-out: Drug excretion
[17] = AUC in Wistar rat at 250 mg/kg, po by HPLC analysis; format: ADME, organism-based; parameters: dose 250 mg/kg, route oral; conditions: plasma
[18] = Drug metabolism in Wistar rat assessed as excretion of 7-methoxy-2-(4-methoxyphenyl)-4-oxo-4H-chromen-5-yl hydrogen sulfate in urine at 750 mg/kg, po by LC-MS and LC-MS/MS analysis; format: ADME, organism-based; parameters: dose 750 mg/kg, route oral; conditions: in vivo
Rattus norvegicus [19] = experiment: Volume of distribution in Wistar rat at 250 mg/kg, po by HPLC analysis; format: ADME, organism-based; parameters: dose 250 mg/kg, route oral; conditions: in vivo
[20] = Tmax in Wistar rat at 250 mg/kg, po by HPLC analysis; format: ADME, organism-based; parameters: dose 250 mg/kg, route oral; conditions: in vivo
[21] = Tmax in Wistar rat kidney at 750 mg/kg, po by LC-MS/MS analysis; format: ADME, organism-based; parameters: dose 750 mg/kg, route oral
[22] = Cmax in Wistar rat at 250 mg/kg, po by HPLC analysis; format: ADME, organism-based; parameters: dose 250 mg/kg, route oral; conditions: in vivo
[23] = Cmax in Wistar rat kidney at 750 mg/kg, po by LC-MS/MS analysis; format: ADME, organism-based; parameters: dose 750 mg/kg, route oral
Rattus norvegicus [24] = experiment: Absorption rate constant in Wistar rat at 250 mg/kg, po by HPLC analysis; format: ADME, organism-based; parameters: dose 250 mg/kg, route oral; conditions: in vivo
[25] = Clearance in Wistar rat at 250 mg/kg, po by HPLC analysis; format: ADME, organism-based; parameters: dose 250 mg/kg, route oral; conditions: in vivo
[26] = Cmax in Wistar rat testes at 750 mg/kg, po by LC-MS/MS analysis; format: ADME, organism-based, Testis; parameters: dose 750 mg/kg, route oral
[27] = Tmax in Wistar rat liver at 750 mg/kg, po by LC-MS/MS analysis; format: ADME, organism-based; parameters: dose 750 mg/kg, route oral
Kidney = experiment: AUC (0.083 to 4 hrs) in Wistar rat kidney at 750 mg/kg, po by LC-MS/MS analysis; format: ADME, organism-based; parameters: time 0.083-4 hr, dose 750 mg/kg, route oral; conditions: in vivo
[28] = Tmax in Wistar rat brain at 750 mg/kg, po by LC-MS/MS analysis; format: ADME, organism-based; parameters: dose 750 mg/kg, route oral
[29] = Drug excretion in Wistar rat urine at 750 mg/kg, po after up to 72 hrs by HPLC-UV analysis; format: ADME, organism-based; parameters: dose 750 mg/kg, route oral; conditions: read-out: Drug excretion
[30] = Drug excretion in Wistar rat feces at 750 mg/kg, po after 18 to 24 hrs by HPLC-UV analysis; format: ADME, organism-based; parameters: dose 750 mg/kg, route oral; conditions: in vivo
[31] = Tmax in Wistar rat lung at 750 mg/kg, po by LC-MS/MS analysis; format: ADME, organism-based; parameters: dose 750 mg/kg, route oral
[32] = Drug metabolism in Wistar rat assessed as excretion of 5-hydroxy-2-(4-methoxyphenyl)-4-oxo-4H-chromen-7-yl hydrogen sulfate in urine at 750 mg/kg, po by LC-MS and LC-MS/MS analysis; format: ADME, organism-based; parameters: dose 750 mg/kg, route oral; conditions: in vivo
[33] = Drug metabolism in Wistar rat assessed as excretion of 5-hydroxy-2-(4-hydroxyphenyl)-7-methoxy-4H-chromen-4-one in urine/feces at 750 mg/kg, po by LC-MS and LC-MS/MS analysis; format: ADME, organism-based; parameters: dose 750 mg/kg, route oral; conditions: in vivo
[34] = Drug excretion in Wistar rat urine at 750 mg/kg, po after 24 to 72 hrs by HPLC-UV analysis; format: ADME, organism-based; parameters: dose 750 mg/kg, route oral; conditions: in vivo
Brain = experiment: AUC (0.083 to 4 hrs) in Wistar rat brain at 750 mg/kg, po by LC-MS/MS analysis; format: ADME, organism-based; parameters: time 0.083-4 hr, dose 750 mg/kg, route oral; conditions: in vivo
[35] = Half life in Wistar rat at 250 mg/kg, iv by HPLC analysis; format: ADME, organism-based; parameters: dose 250 mg/kg, route intravenous; conditions: Wistar, in vivo
[36] = Cmax in Wistar rat liver at 750 mg/kg, po by LC-MS/MS analysis; format: ADME, organism-based; parameters: dose 750 mg/kg, route oral

In the case of `COc1cc(O)c2c(=O)c(OC)c(-c3ccc(OC)c(OC)c3)oc2c1` [RETUSIN], the Drug excretion [1] was “Active” and the Drug excretion [2] was “Active”.

In the case of `COc1cc(O)c2c(=O)c(O)c(-c3ccc(O)cc3)oc2c1` [RHAMNOCITRIN], the Drug metabolism [3] was “metabolite_detected”.

For `COc1cc(O)c2c(=O)cc(-c3ccccc3)oc2c1` [TECHTOCHRYSIN], the Drug excretion [1] was “Active” and the Drug excretion [2] was “Active”.

In the case of `COc1ccc(-c2oc3cc(OC)cc(OC)c3c(=O)c2OC)cc1` [TETRAMETHYLKAEMPFEROL], the Drug metabolism [4] was “metabolite_detected” and the Drug metabolism [5] was “metabolite_detected”.

Work on `COc1ccc(-c2cc(=O)c3c(OC)cc(OC)cc3o2)cc1` [TRIMETHYLAPIGENIN] yielded a Cmax [6] of 1410 ng/g, a Cmax [7] of 1430 ng/g and a clearance [8] of 0.105 mL/min. The k el [9] was 4.17e-05 s⁻¹, the AUC (Liver) was 7.83 µg·h/g and the k el [10] was 8.89e-05 s⁻¹. The Tmax [11] was 3.14 h, the half-life [12] was 5.04 h and the AUC [13] was 1.96 µg·h/g. For the same compound, the AUC [14] was 276 µg·h/mL, the bioavailability [15] was 1.75% and the Drug excretion [1] was “Active”. For the same compound, the AUC (Lung) was 1.88 µg·h/g, the dose excreted at 72 h [16] was 1.76% and the AUC [17] was 6.96 µg·h/mL. The Drug metabolism [18] was “metabolite_detected”, the Drug excretion [2] was “Active” and the Vd (Rattus norvegicus [19]) was 2385.1 mL. For the same compound, the Tmax [20] was 0.85 h, the Tmax [21] was 3.43 h and the Cmax [22] was 880 ng/mL. The Cmax [23] was 1640 ng/g, the ka (Rattus norvegicus [24]) was 8.53 h⁻¹ and the CL/F [25] was 5.62 mL/min. The Cmax [26] was 1100 ng/g, the Tmax [27] was 2.64 h and the AUC (Kidney) was 3.01 µg·h/g. For the same compound, the Tmax [28] was 3.43 h, the dose excreted at 72 h [29] was 1.77% and the Drug excretion [30] was “Active”. For the same compound, the Tmax [31] was 1.76 h, the Drug metabolism [32] was “metabolite_detected” and the Drug metabolism [33] was “metabolite_detected”. The Drug excretion [34] was “Active”, the AUC (Brain) was 2.5 µg·h/g and the half-life [35] was 4.19 h. The Cmax [36] was 3010 ng/g.
